Data reported in patent US20240216396A1, “NEUROACTIVE STEROID FOR USE IN TREATING MAJOR DEPRESSIVE DISORDER AND […] A LACTATING FEMALE” (Sage Therapeutics, Inc., priority 2021, published 2024).

Legend:
[1] = tested on: synaptic and extrasynaptic GABAA receptors; conditions: cited from earlier work
[2] = Breast milk production (volume) in healthy lactating participants; type: in vivo, human; conditions: 30 mg once-daily oral for 5 days; inter-participant variability noted
Text: (§1) Compound (1) is an investigational, synthetic, oral neuroactive steroid under investigation as a once-daily therapy for major depressive disorder and postpartum depression. This open-label study evaluated the extent of Compound (1) transfer into breast milk, breast milk production (volume), pharmacokinetics (PK), plasma protein binding, safety, and tolerability in healthy lactating participants.
(§2) Healthy volunteers (N=15) aged 18-45 years, >12 weeks postpartum, actively lactating, and pumping or breast feeding ≥3 times per day orally self-administered Compound (1) 30 mg once-daily with food for 5 days. Breast milk was collected from Day −3 through Day 12. Blood samples for PK and plasma protein binding analysis were collected predose (Day 1), on Days 5-6, and during follow-up (Days 7, 9, and 12). The relationship between plasma and breast milk concentrations was examined with population PK modeling.

[3] = Open-label study: transfer of Compound (1) into breast milk of healthy lactating women; type: in vivo, human
Text: as §1, §2

[4] = Safety and tolerability in healthy lactating participants; type: in vivo, human
Text: as §1, §2

[5] = Population PK modeling of the relationship between plasma and breast milk concentrations; type: in vivo, human
Protocol: as §2

[6] = tested on: plasma protein; experiment: Plasma protein binding analysis of blood samples from healthy lactating participants; type: in vitro ADME; conditions: female, human, across participants, 30 mg once-daily oral with food for 5 days, read-out: free fraction in plasma (plasma protein binding)
Text: as §1, §2

SMILES: C[C@@]1(O)CC[C@H]2[C@H](CC[C@@H]3[C@@H]2CC[C@]2(C)[C@@H](C(=O)Cn4cc(C#N)cn4)CC[C@@H]32)C1 [Compound (1), 1-(2-((3R,5R,8R,9R,10S,13S,14S,17S)-3-hydroxy-3,13-dimethylhexadecahydro-1H-cyclopenta[a]phenanthren-17-yl)-2-oxoethyl)-1H-pyrazole-4-carbonitrile]
- action on GABAA receptors [1]: positive allosteric modulator
- decrease of volume of milk collected from baseline [2]: 8.3%
- breast milk concentration relative to plasma concentration ([3]; 30 mg once-daily for 5 days): approximately one-half
- daily infant dose ([3]; Day 5, 30 mg once-daily oral for 5 days): 0.00125 mg/kg/day
- estimated mean relative infant dose (RID) ([3]; Day 5, 30 mg once-daily oral for 5 days, compared to maternal dose): 0.357%
- tolerability ([4]; 30 mg for 5 days, healthy lactating participants): well-tolerated
- adverse events reported ([4]; 30 mg once-daily oral for 5 days, N=15): No deaths, serious adverse events, moderate or severe treatment-emergent adverse events (TEAEs), or TEAEs leading to discontinuation or study withdrawal were reported
- Kp ([5]; female, human, breast milk/plasma, oral, 30 mg, constant, population PK modeling, read-out: partition coefficient between milk and plasma): 0.501
- relationship of plasma concentrations with time or collected milk volume ([5]; in vivo): no apparent relationship
- between-subject variability in milk/plasma partitioning ([5]; population PK modeling): 23%
- fraction unbound [6]: ≤ 0.0052
